In experiment [1] the target is GDP-bound NRAS wild-type protein (Homo sapiens, UniProt P01111). Kind of experiment: Binding to NRAS by surface plasmon resonance (SPR), KD and KD ratio to KRAS. A digest of the protocol: (§1)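 Single-cycle kinetics on GDP-loaded biotin-Avi RAS captured to ~100–300 RU; 75 s ascending injections, 100 µL/min, 30°C. HBS pH 7.4 + 10 mM MgCl2/10 µM GDP/4% DMSO. 1:1 fit, KD.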
In general terms: In SPR one partner is held on a chip, and binding of the other changes the refractive index at the surface.

The next experiment deals with HRAS wild-type protein (Homo sapiens, UniProt P01112). Description: Binding to HRAS by surface plasmon resonance (SPR), KD and KD ratio to KRAS. A digest of the protocol:
as §1

Experiment [2] relates to human lung cancer strain NCI-H441. Description: NCI-H441 cell proliferation inhibitory activity (CellTiter-Glo, 4 days). To be noted: read-out: NCl-H441 IC50. The format is cell-based. The protocol:
A test compound was dispensed into a U-bottom 384-well plate as 40 nL serially diluted dimethyl sulfoxide solutions using a liquid handler Echo (LABCYTE). […] This cell suspension was dispensed in an amount of 40 µL per well into a plate containing the test compound, and cultured at 37°C in a 5% carbon dioxide gas incubator. Four days later, 20 µL of CellTiter-Glo (registered trademark) (Promega) was added to each well and […] was measured. […]

Experiment [3] has as its target GDP-bound KRAS wild-type protein (Homo sapiens, UniProt P01116). Kind of experiment: Binding to KRAS by surface plasmon resonance (SPR), dissociation constant KD. To be noted: 1:1 binding model. In a few lines: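 Captured GDP-RAS (~100–300 RU) was exposed to increasing compound concentrations, 75 s per step, in running buffer with 10 µM GDP, 10 mM MgCl2 and 4% DMSO at pH 7.4.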

For experiment [4], the system named is human lung cancer strain NCI-H441. The format is cell-based. A digest of the protocol:
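Proliferation was scored by […] measured after the reagent was added to cultures kept at 37°C in 5% carbon dioxide.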

The mark [5] stands for this setting: 50% proliferation inhibitory concentration, four days.
Where [6] appears, read: ratio of KD for GDP-bound NRAS wild-type protein to KD for KRAS.
Setting [7] is: ratio of KD for HRAS wild-type protein to KD for KRAS.

SMILES strings stand for the structures. Where two headings read alike, the source gives them in different places.

Sequence of GDP-bound NRAS wild-type protein (P01111 whole entry): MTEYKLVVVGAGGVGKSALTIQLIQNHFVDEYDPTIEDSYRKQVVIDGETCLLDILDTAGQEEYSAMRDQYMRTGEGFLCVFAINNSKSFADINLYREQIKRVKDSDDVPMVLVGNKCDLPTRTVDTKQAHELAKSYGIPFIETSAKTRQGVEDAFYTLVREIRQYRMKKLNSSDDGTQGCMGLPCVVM
Sequence of HRAS wild-type protein (P01112 whole entry): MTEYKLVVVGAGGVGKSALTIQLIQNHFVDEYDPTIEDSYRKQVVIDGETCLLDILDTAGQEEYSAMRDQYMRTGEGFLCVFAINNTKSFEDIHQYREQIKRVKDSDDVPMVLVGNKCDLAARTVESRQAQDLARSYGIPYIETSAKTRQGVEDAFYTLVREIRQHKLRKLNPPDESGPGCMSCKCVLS
Sequence of GDP-bound KRAS wild-type protein (P01116 1-188 isoform P01116-2): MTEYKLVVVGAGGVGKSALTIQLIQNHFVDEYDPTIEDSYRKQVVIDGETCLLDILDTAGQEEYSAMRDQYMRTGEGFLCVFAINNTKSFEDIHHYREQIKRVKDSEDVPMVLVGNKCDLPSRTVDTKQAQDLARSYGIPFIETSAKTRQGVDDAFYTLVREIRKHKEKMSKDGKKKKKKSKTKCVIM

As usually defined, the IC50 is the concentration that inhibits the measured activity by half. `CCO[C@@H]1C[C@H]2C(=O)NC3(CCC3)C(=O)N(C)[C@@H](C3CCCC3)C(=O)N(C)[C@@H](C(=O)N(C)C)CC(=O)N(C)[C@@H](CC3CCCC3)C(=O)N[C@@H]([C@@H](C)CC)C(=O)N(C)CC(=O)N(C)[C@H]3C/C=C\CCN(C3=O)[C@@H](Cc3ccc(C(F)(F)F)cc3)C(=O)N(C)CC(=O)N[C@@H](CCc3cc(F)c(C(F)(F)F)c(F)c3)C(=O)N2C1` [PP1235]: the “NRAS /KRAS” value in experiment [1] (ratio of KD with respect to GDP-bound NRAS wild-type protein to KD with respect to KRAS) was “B (a compound having 3 or more and less than 10 is denoted as B)”. Also, on HRAS wild-type protein (ratio of KD with respect to HRAS wild-type protein to KD with respect to KRAS), the “HRAS /KRAS” value was “C (A compound having a KD ratio of 0.1 or more and less than 3 is denoted as C)”. For the same molecule, the IC50 in experiment [2] (setting [5]) turned out to be 386 nM.
Regarding `CCO[C@@H]1C[C@H]2C(=O)NC3(COC3)C(=O)N(C)[C@@H](C3CCCC3)C(=O)N(C)[C@H](C(=O)N(C)C)CC(=O)N(C)[C@@H](CC)C(=O)N[C@@H]([C@@H](C)CC)C(=O)N(C)CC(=O)N(C)[C@H]3C/C=C\CCN(C3=O)[C@@H](Cc3ccc(C(F)(F)F)cc3)C(=O)N(C)CC(=O)N[C@@H](CCc3cc(F)c(C(F)(F)F)c(F)c3)C(=O)N2C1` [PP1278], in experiment [2] (setting [5]), the IC50 was 45.7 nM.
On to `CCO[C@@H]1C[C@H]2C(=O)NC3(CCC3)C(=O)N(C)[C@@H](C3CCCC3)C(=O)N(C)[C@H](C(=O)N3CCOCC3)CC(=O)N(C)[C@@H](CC)C(=O)N[C@@H]([C@@H](C)CC)C(=O)N(C)CC(=O)N(C)[C@H]3C/C=C\CCN(C3=O)[C@@H](Cc3ccc(C(F)(F)F)cc3)C(=O)N(C)CC(=O)N[C@@H](CCc3ccc(C(F)(F)F)c(Cl)c3)C(=O)N2C1` [PP1281], for which the IC50 in experiment [2] (setting [5]) was 10.2 nM.
For the molecule `CCC[C@H]1C(=O)N[C@@H]([C@@H](C)CC)C(=O)N(C)CC(=O)N(C)[C@H]2C/C=C\CCN(C2=O)[C@@H](Cc2ccc(C(F)(F)F)cc2)C(=O)N(C)CC(=O)N[C@@H](CCc2cc(F)c(C(F)(F)F)c(F)c2)C(=O)N2C[C@H](OCC)C[C@H]2C(=O)NC2(CCC2)C(=O)N(C)[C@@H](C2CCCC2)C(=O)N(C)[C@H](C(=O)N2CCCC2)CC(=O)N1C` [PP1299], the IC50 in experiment [2] (setting [5]) is 11 nM.
Turning to `CCCC[C@H]1C(=O)N[C@@H]([C@@H](C)CC)C(=O)N(C)CC(=O)N(C)[C@H]2C/C=C\CCN(C2=O)[C@@H](Cc2ccc(C(F)(F)F)cc2)C(=O)N(C)CC(=O)N[C@@H](CCc2cc(F)c(C(F)(F)F)c(F)c2)C(=O)N2C[C@H](OCC)C[C@H]2C(=O)NC2(CCC2)C(=O)N(C)[C@@H](C2CCCC2)C(=O)N(C)[C@H](C(=O)N2CCCC2)CC(=O)N1C` [PP1396], in experiment [2] (setting [5]), the half-inhibitory concentration (IC50) amounted to 19.4 nM.
On to `CCO[C@@H]1C[C@H]2C(=O)NC3(CCC3)C(=O)N(C)[C@@H](C3CCCC3)C(=O)N(C)[C@H](C(=O)N3CCCC3)CC(=O)N(C)[C@@H](CC3CCC3)C(=O)N[C@@H]([C@@H](C)CC)C(=O)N(C)CC(=O)N(C)[C@H]3C/C=C\CCN(C3=O)[C@@H](Cc3ccc(C(F)(F)F)cc3)C(=O)N(C)CC(=O)N[C@@H](CCc3cc(F)c(C(F)(F)F)c(F)c3)C(=O)N2C1` [PP1423], for which the IC50 in experiment [2] (setting [5]) came to 4.4 nM.
Take `CCC[C@H]1C(=O)N[C@@H]([C@@H](C)CC)C(=O)N(C)CC(=O)N(C)[C@H]2C/C=C\CCN(C2=O)[C@@H](CC2CCC(F)(F)CC2)C(=O)N(C)CC(=O)N[C@@H](CCc2cc(F)c(C(F)(F)F)c(F)c2)C(=O)N2C[C@H](OCC)C[C@H]2C(=O)NC2(CCC2)C(=O)N(C)[C@@H](C2CCCC2)C(=O)N(C)[C@H](C(=O)N(C)C)CC(=O)N1C` [PP1450]: the IC50 in experiment [2] (setting [5]) came out at 50.1 nM.
On the same count and under the same terms, the same measure for `CC[C@H](C)[C@@H]1NC(=O)[C@H](CC)N(C)C(=O)C[C@@H](C(=O)N(C)C)N(C)C(=O)[C@H](C2CCCC2)N(C)C(=O)C2(CCC2)NC(=O)[C@@H]2C[C@@H](C(F)(F)F)CN2C(=O)[C@H](CCc2cc(F)c(C(F)(F)F)c(F)c2)NC(=O)CN(C)C(=O)[C@H](CC2CCC(F)(F)CC2)N2CC/C=C\C[C@@H](C2=O)N(C)C(=O)CN(C)C1=O` [PP1451]: 61.1 nM; for `CCO[C@@H]1C[C@H]2C(=O)NC3(CCC3)C(=O)N(C)[C@@H](C3CCCC3)C(=O)N(C)[C@H](C(=O)N(C)C)CC(=O)N(C)[C@@H](CC)C(=O)N[C@@H]([C@@H](C)CC)C(=O)N(C)CC(=O)N(C)[C@H]3C/C=C\CCN(C3=O)[C@@H](CC3CCCCC3)C(=O)N(C)CC(=O)N[C@@H](CCc3cc(F)c(C(F)(F)F)c(F)c3)C(=O)N2C1` [PP1466]: 33.2 nM; for `CCO[C@@H]1C[C@H]2C(=O)NC3(CCC3)C(=O)N(C)[C@@H](C3CCCC3)C(=O)N(C)[C@H](C(=O)N(C)C)CC(=O)N(C)[C@@H](CC3CCCC3)C(=O)N[C@@H]([C@@H](C)CC)C(=O)N(C)CC(=O)N(C)[C@H]3C/C=C\CCN(C3=O)[C@@H](CC3CCCCC3)C(=O)N(C)CC(=O)N[C@@H](CCc3cc(F)c(C(F)(F)F)c(F)c3)C(=O)N2C1` [PP1472]: 37.1 nM.
What is called Kd is the concentration at which binding is half-saturated. A low value points to tighter binding. With `CCO[C@@H]1C[C@H]2C(=O)NC3(CC(C)(C)C3)C(=O)N(C)[C@@H](C3CCCC3)C(=O)N(C)[C@H](C(=O)N(C)C)CC(=O)N(C)[C@@H]([C@@H](C)OC)C(=O)N[C@@H]([C@@H](C)CC)C(=O)N3CCC[C@H]3C(=O)N(C)[C@H]3C/C=C\CCN(C3=O)[C@@H](Cc3ccc(C)cc3)C(=O)N(C)CC(=O)N[C@@H](CCc3ccc(C(F)(F)F)c(OC)c3)C(=O)N2C1` [PP3213], the Kd in experiment [3] came to 0.6 nM. Further, the “NRAS /KRAS” value in experiment [1] (setting [6]) is “A (a compound having 10 or more and less than 20 is denoted as A)”. Besides, the “HRAS /KRAS” value at HRAS wild-type protein (setting [7]) is “A (a compound having 10 or more and less than 20 is denoted as A)”. Besides, the IC50 in experiment [4] turned out to be 61.4 nM.
Regarding `CCO[C@@H]1C[C@H]2C(=O)NC3(CC(C)(C)C3)C(=O)N(C)[C@@H](C3CCCC3)C(=O)N(C)[C@H](C(=O)N(C)C)CC(=O)N(C)[C@@H]([C@@H](C)OC)C(=O)N[C@@H]([C@@H](C)CC)C(=O)N3CCC[C@H]3C(=O)N(C)[C@H]3C/C=C\CCN(C3=O)[C@@H](Cc3ccc(C)cc3)C(=O)N(C)CC(=O)N[C@@H](CCc3cc(F)c(C(F)(F)F)c(F)c3)C(=O)N2C1` [PP3214], the dissociation constant Kd in experiment [3] stood at 0.48 nM. Moreover, the “NRAS /KRAS” value in experiment [1] (setting [6]) was “A (a compound having 10 or more and less than 20 is denoted as A)”. For the same molecule, the “HRAS /KRAS” value at HRAS wild-type protein (setting [7]) is “A (a compound having 10 or more and less than 20 is denoted as A)”. The molecule also displayed an IC50 in experiment [4] of 45.8 nM.
On to `CCO[C@@H]1C[C@H]2C(=O)NC3(CC(C)(C)C3)C(=O)N(C)[C@@H](C3CCCC3)C(=O)N(C)[C@H](C(=O)N(C)CC)CC(=O)N(C)[C@@H]([C@H](C)OC)C(=O)N[C@@H]([C@@H](C)CC)C(=O)N(C)CC(=O)N(C)[C@H]3C/C=C\CCN(C3=O)[C@@H](Cc3ccc(C(F)(F)F)cc3)C(=O)N(C)CC(=O)N[C@@H](CCc3ccc(C(F)(F)F)c(OC)c3)C(=O)N2C1` [PP3216], for which the IC50 in experiment [2] (NCI-H441 cells, 4 days) stood at 22.1 nM.
With `CCO[C@@H]1C[C@H]2C(=O)NC3(CC(C)(C)C3)C(=O)N(C)[C@@H](C3CCCC3)C(=O)N(C)[C@H](C(=O)N(C)CC)CC(=O)N(C)[C@@H]([C@H](C)OC)C(=O)N[C@@H]([C@@H](C)CC)C(=O)N(C)CC(=O)N(C)[C@H]3C/C=C\CCN(C3=O)[C@@H](Cc3ccc(C(F)(F)F)cc3)C(=O)N(C)CC(=O)N[C@@H](CCc3ccc(C(F)(F)F)c(Cl)c3)C(=O)N2C1` [PP3218], the IC50 in experiment [2] (NCI-H441 cells, 4 days) was determined as 15.1 nM.
With `CCO[C@@H]1C[C@H]2C(=O)NC3(CC(C)(C)C3)C(=O)N(C)[C@@H](C3CCCC3)C(=O)N(C)[C@H](C(=O)N(C)CC)CC(=O)N(C)[C@@H]([C@H](C)OC)C(=O)N[C@@H]([C@@H](C)CC)C(=O)N(C)CC(=O)N(C)[C@H]3C/C=C\CCN(C3=O)[C@@H](Cc3ccc(C)cc3)C(=O)N(C)CC(=O)N[C@@H](CCc3ccc(C(F)(F)F)c(OC)c3)C(=O)N2C1` [PP3225], the IC50 in experiment [2] (NCI-H441 cells, 4 days) came to 12.1 nM.
